Values joined by “and” are separate entries in the source; they are usually repeats but may differ in a detail not shown here. Equal entries are not always repeated.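 All cell lines were grown in 96-well plates and treated with compound for 48 hours. GI50: concentration for 50% inhibition of growth. TGI marks complete inhibition of growth.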
Assays:
Experiment in all cases: NCI tumour cell line growth inhibition, 48 h; in the data active = GI50 below about 0.43 µM; inactive = the rest
[1] = test system: 786-0 renal
[2] = test system: A498 renal
[3] = test system: A549 NSCLC
[4] = test system: BT-549 breast
[5] = test system: CAKI-1 renal
[6] = test system: CCRF-CEM leukemia
[7] = test system: COLO 205 colon
[8] = test system: DU-145 prostate
[9] = test system: EKVX NSCLC
[10] = test system: HCC-2998 colon
[11] = test system: HCT-116 colon
[12] = test system: HCT-15 colon
[13] = test system: HL-60(TB) leukemia
[14] = test system: HOP-62 NSCLC
[15] = test system: HOP-92 NSCLC
[16] = test system: HS 578T breast
[17] = test system: HT29 colon
[18] = test system: K-562 leukemia
[19] = test system: KM12 colon
[20] = test system: M14 melanoma
[21] = test system: MALME-3M melanoma
[22] = test system: MCF7 breast
[23] = test system: MDA-MB-231 breast
[24] = test system: MDA-MB-435
[25] = test system: MOLT-4 leukemia
[26] = test system: NCI-H226 lung
[27] = test system: NCI-H23 lung
[28] = test system: NCI-H460 lung
[29] = test system: NCI-H522 lung
[30] = test system: NCI/ADR-RES ovarian
[31] = test system: OVCAR-3 ovarian
[32] = test system: OVCAR-4 ovarian
[33] = test system: OVCAR-5 ovarian
[34] = test system: OVCAR-8 ovarian
[35] = test system: PC-3 prostate
[36] = test system: RXF 393 renal
[37] = test system: SF-268 CNS
[38] = test system: SF-295 CNS
[39] = test system: SF-539 CNS
[40] = test system: SK-MEL-2 melanoma
[41] = test system: SK-MEL-28 melanoma
[42] = test system: SK-MEL-5 melanoma
[43] = test system: SK-OV-3 ovarian
[44] = test system: SN12C renal
[45] = test system: SNB-19 CNS
[46] = test system: SNB-75 CNS
[47] = test system: SW-620 colon
[48] = test system: T-47D breast
[49] = test system: TK-10 renal
[50] = test system: U251 CNS
[51] = test system: UACC-257 melanoma
[52] = test system: UACC-62 melanoma
[53] = test system: UO-31 renal
[54] = test system: ACHN renal
[55] = test system: IGROV1 ovarian
[56] = test system: LOX IMVI melanoma
[57] = test system: RPMI-8226 leukemia
[58] = test system: SR leukemia

CCCCCCn1c(-c2ccc(C(=O)O/N=C(\N)c3ccc4ccccc4c3)cc2)nc(-c2ccccc2)c1-c1ccccc1
55.1 µM: TGI [5]
29.7 µM: TGI [36]
7.77 µM: TGI [15]
> 26 µM: TGI [2]
> 28.7 µM: TGI [16]
> 90.9 µM: TGI [43]
20.1 µM: TGI [46]
inactive: GI50 [1] 7.63 µM | GI50 [2] 2.09 µM | GI50 [3] 2.55 µM | GI50 [4] 8 µM | GI50 [5] 2.65 µM | GI50 [6] 1.51 µM | GI50 [7] > 100 µM | GI50 [8] > 100 µM | GI50 [9] 6.73 µM | GI50 [10] > 100 µM | GI50 [11] 4.2 µM | GI50 [12] 7.53 µM | GI50 [13] 1.33 µM | GI50 [14] 5.77 µM | GI50 [15] 1.92 µM | GI50 [16] 2.55 µM | GI50 [17] > 100 µM | GI50 [18] 2.42 µM | GI50 [19] > 100 µM | GI50 [20] > 83.5 µM | GI50 [21] > 49.9 µM | GI50 [22] 4.3 µM | GI50 [23] 17.8 µM | GI50 [24] 7.42 µM | GI50 [25] > 100 µM | GI50 [26] 27.3 µM | GI50 [27] 7.57 µM | GI50 [28] > 100 µM | GI50 [29] 24.5 µM | GI50 [30] 3.02 µM | GI50 [31] > 100 µM | GI50 [32] > 100 µM | GI50 [33] > 100 µM | GI50 [34] > 96.3 µM | GI50 [35] 7.32 µM | GI50 [36] 5.28 µM | GI50 [37] 6.71 µM | GI50 [38] 11.8 µM | GI50 [39] 12.5 µM | GI50 [40] 25.6 µM | GI50 [41] > 100 µM | GI50 [42] > 100 µM | GI50 [43] 25.9 µM | GI50 [44] > 100 µM | GI50 [45] 22.3 µM | GI50 [46] 2.18 µM | GI50 [47] > 100 µM | GI50 [48] 4.99 µM | GI50 [49] 16 µM | GI50 [50] 7.64 µM | GI50 [51] > 100 µM | GI50 [52] 22.6 µM | GI50 [53] 2.17 µM
> 83.7 µM: TGI [38]
> 93.2 µM: TGI [40]
> 100 µM: TGI [1] | TGI [3] | TGI [4] | TGI [6] | TGI [7] | TGI [8] | TGI [9] | TGI [10] | TGI [11] | TGI [12] | TGI [13] | TGI [14] | TGI [17] | TGI [18] | TGI [19] | TGI [20] | TGI [21] | TGI [22] | TGI [23] | TGI [24] | TGI [25] | TGI [26] | TGI [27] | TGI [28] | TGI [29] | TGI [30] | TGI [31] | TGI [32] | TGI [33] | TGI [34] | TGI [35] | TGI [37] | TGI [39] | TGI [41] | TGI [42] | TGI [44] | TGI [45] | TGI [47] | TGI [48] | TGI [50] | TGI [51] | TGI [52] | TGI [53]
> 88.5 µM: TGI [49]

N#Cc1c(N)n2c(nc1=Nc1ccc(Cl)cc1)sc1cc(Cl)ccc12
42.9 µM: TGI [38]
9.62 µM: TGI [2]
71 µM: TGI [23]
5.92 µM: TGI [16]
8.94 µM: TGI [10]
> 100 µM: TGI [54] | TGI [4] | TGI [5] | TGI [8] | TGI [9] | TGI [11] | TGI [12] | TGI [13] | TGI [17] | TGI [55] | TGI [18] | TGI [56] | TGI [20] | TGI [21] | TGI [22] | TGI [24] | TGI [28] | TGI [31] | TGI [32] | TGI [37] | TGI [39] | TGI [41] | TGI [43] | TGI [44] | TGI [45] | TGI [46] | TGI [58] | TGI [47] | TGI [48] | TGI [49] | TGI [50] | TGI [51] | TGI [52]
34.8 µM: TGI [30]
42.4 µM: TGI [27]
inactive: GI50 [1] 5.46 µM and 2.5 µM | GI50 [2] 5.24 µM and 1.2 µM | GI50 [54] 9 µM | GI50 [4] 24.8 µM | GI50 [5] 22.4 µM | GI50 [6] 4.21 µM | GI50 [8] > 100 µM | GI50 [9] 10.2 µM | GI50 [10] 2.23 µM | GI50 [11] 6.12 µM | GI50 [12] 5.47 µM | GI50 [14] 4.6 µM | GI50 [16] 2.98 µM and 1.44 µM | GI50 [17] 5.67 µM and 3.77 µM | GI50 [55] > 100 µM | GI50 [18] > 100 µM | GI50 [19] 3.22 µM | GI50 [56] 13.5 µM | GI50 [20] 6.59 µM and 5.9 µM | GI50 [21] 6.35 µM and 14.8 µM | GI50 [22] 1.83 µM | GI50 [23] 7.28 µM | GI50 [24] 6.18 µM | GI50 [25] 4.42 µM | GI50 [26] 6.71 µM and 2.39 µM | GI50 [28] 22 µM | GI50 [29] 3.74 µM | GI50 [30] 4.69 µM | GI50 [31] 6.11 µM | GI50 [32] 9.82 µM | GI50 [35] 4.65 µM | GI50 [57] 1.26 µM | GI50 [37] 4.08 µM | GI50 [38] 4.12 µM and 3.04 µM | GI50 [39] 8.7 µM | GI50 [40] 2.01 µM | GI50 [41] 5.74 µM and 2.8 µM | GI50 [42] 8 µM | GI50 [43] 7.14 µM and 5.3 µM | GI50 [44] 33.5 µM | GI50 [45] > 100 µM | GI50 [46] 5.07 µM | GI50 [58] 2.26 µM | GI50 [47] 3.42 µM | GI50 [48] > 100 µM | GI50 [49] 15 µM | GI50 [50] 6.56 µM | GI50 [51] > 100 µM | GI50 [52] 2.85 µM
5.03 µM: TGI [1]
9.27 µM: TGI [57]
9 µM: TGI [26]
30.1 µM: TGI [14]

Source: PubChem BioAssay (NCI)
